PubChem BioAssay AID1963830 (Molecular Pharmacology Branch, DTP, NCI, 2024)

Test system: 922993-354-T-J3-PDC complex spheroid viability
Assay: Anticancer human tumor 922993-354-T-J3-PDC patient-derived endometrial carcinoma cell line growth inhibition [POLQ]
Settings: for IC50: curve of first compound; for viability, T/C: stronger effect = lower value
Procedure, shortened: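 Growth inhibition in 3D: complex spheroids (tumor PDC, HUVEC, MSC) treated with POLQ inhibitor combinations; where Cmax unknown, highest tested concentration 10 microM, except SN-38 at 1 microM.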

[1] = second compound 0.0316 µM, first compound 0.0316 µM
[2] = second compound 0.0316 µM, first compound 0.1 µM
[3] = second compound 0.0316 µM, first compound 0.316 µM
[4] = second compound 0.0316 µM, first compound 1 µM
[5] = second compound 0.0316 µM, first compound 3.16 µM
[6] = second compound 0.0316 µM, first compound 10 µM
[7] = second compound 0.1 µM, first compound 0.0316 µM
[8] = second compound 0.1 µM, first compound 0.1 µM
[9] = second compound 0.1 µM, first compound 0.316 µM
[10] = second compound 0.1 µM, first compound 1 µM
[11] = second compound 0.1 µM, first compound 3.16 µM
[12] = second compound 0.1 µM, first compound 10 µM
[13] = second compound 0.316 µM, first compound 0.0316 µM
[14] = second compound 0.316 µM, first compound 0.1 µM
[15] = second compound 0.316 µM, first compound 0.316 µM
[16] = second compound 0.316 µM, first compound 1 µM
[17] = second compound 0.316 µM, first compound 3.16 µM
[18] = second compound 0.316 µM, first compound 10 µM
[19] = second compound 1 µM, first compound 0.0316 µM
[20] = second compound 1 µM, first compound 0.1 µM
[21] = second compound 1 µM, first compound 0.316 µM
[22] = second compound 1 µM, first compound 1 µM
[23] = second compound 1 µM, first compound 3.16 µM
[24] = second compound 1 µM, first compound 10 µM
[25] = second compound 3.16 µM, first compound 0.0316 µM
[26] = second compound 3.16 µM, first compound 0.1 µM
[27] = second compound 3.16 µM, first compound 0.316 µM
[28] = second compound 3.16 µM, first compound 1 µM
[29] = second compound 3.16 µM, first compound 3.16 µM
[30] = second compound 3.16 µM, first compound 10 µM
[31] = second compound 10 µM, first compound 0.0316 µM
[32] = second compound 10 µM, first compound 0.1 µM
[33] = second compound 10 µM, first compound 0.316 µM
[34] = second compound 10 µM, first compound 1 µM
[35] = second compound 10 µM, first compound 3.16 µM
[36] = second compound 10 µM, first compound 10 µM
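Also: spheroids exposed to the agents for one week.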
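For viability, T/C in this document: 100% = DMSO vehicle control wells.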

CCCS(=O)(=O)Nc1ccc(F)c(C(=O)c2c[nH]c3ncc(-c4ccc(Cl)cc4)cc23)c1F + COC1C(OC(N)=O)C(O)C(Oc2ccc3c(O)c(NC(=O)c4ccc(O)c(CC=C(C)C)c4)c(=O)oc3c2C)OC1(C)C
IC50 (second compound 0.0316 µM): > 10 µM | IC50 (second compound 0.1 µM): > 10 µM | IC50 (second compound 0.316 µM): > 10 µM | IC50 (second compound 1 µM): > 10 µM | IC50 (second compound 3.16 µM): > 10 µM | IC50 (second compound 10 µM): > 10 µM | viability, T/C [1]: 98.7% | viability, T/C [2]: 97% | viability, T/C [3]: 97.3% | viability, T/C [4]: 110% | viability, T/C [5]: 106% | viability, T/C [6]: 68.6% | viability, T/C [7]: 102% | viability, T/C [8]: 103% | viability, T/C [9]: 103% | viability, T/C [10]: 110% | viability, T/C [11]: 102% | viability, T/C [12]: 83.6% | viability, T/C [13]: 112% | viability, T/C [14]: 102% | viability, T/C [15]: 107% | viability, T/C [16]: 109% | viability, T/C [17]: 93% | viability, T/C [18]: 67.1% | viability, T/C [19]: 93.6% | viability, T/C [20]: 103% | viability, T/C [21]: 101% | viability, T/C [22]: 103% | viability, T/C [23]: 90.5% | viability, T/C [24]: 86.8% | viability, T/C [25]: 94.7% | viability, T/C [26]: 103% | viability, T/C [27]: 95.9% | viability, T/C [28]: 94.1% | viability, T/C [29]: 101% | viability, T/C [30]: 73.8% | viability, T/C [31]: 90% | viability, T/C [32]: 84.3% | viability, T/C [33]: 79.8% | viability, T/C [34]: 85.1% | viability, T/C [35]: 90.4% | viability, T/C [36]: 59.5%

O=C(Nc1ccc(O)c(NS(=O)(=O)c2ccc(F)cc2)c1)c1ccc(-c2ccccc2)cc1 + Nc1ccc(C#CCN(C(=O)Cc2ncc(C(F)(F)F)cc2C(F)(F)F)c2ccc(F)cc2)nn1
IC50 (second compound 0.0316 µM): > 10 µM | IC50 (second compound 0.1 µM): > 10 µM | IC50 (second compound 0.316 µM): > 10 µM | IC50 (second compound 1 µM): > 10 µM | IC50 (second compound 3.16 µM): > 10 µM | IC50 (second compound 10 µM): > 10 µM | viability, T/C [1]: 99.8% | viability, T/C [2]: 107% | viability, T/C [3]: 99.4% | viability, T/C [4]: 102% | viability, T/C [5]: 105% | viability, T/C [6]: 96.2% | viability, T/C [7]: 101% | viability, T/C [8]: 97.6% | viability, T/C [9]: 99.4% | viability, T/C [10]: 97.6% | viability, T/C [11]: 99.1% | viability, T/C [12]: 102% | viability, T/C [13]: 100% | viability, T/C [14]: 100% | viability, T/C [15]: 99.1% | viability, T/C [16]: 95.1% | viability, T/C [17]: 103% | viability, T/C [18]: 105% | viability, T/C [19]: 102% | viability, T/C [20]: 94.8% | viability, T/C [21]: 104% | viability, T/C [22]: 93% | viability, T/C [23]: 105% | viability, T/C [24]: 99% | viability, T/C [25]: 101% | viability, T/C [26]: 97.7% | viability, T/C [27]: 100% | viability, T/C [28]: 97.4% | viability, T/C [29]: 105% | viability, T/C [30]: 103% | viability, T/C [31]: 97.6% | viability, T/C [32]: 99.7% | viability, T/C [33]: 95% | viability, T/C [34]: 99.1% | viability, T/C [35]: 103% | viability, T/C [36]: 102%

CC1COCCN1c1cc(-c2ccnn2C)c2ccnc(-c3ccn[nH]3)c2n1 (stereo unspecified) + Cc1cccc(N(C)C(=O)C2C(O)CCN2c2nc(C)cc(C(F)(F)F)c2C#N)c1
IC50 (second compound 0.0316 µM): 0.167 µM | IC50 (second compound 0.1 µM): 0.137 µM | IC50 (second compound 0.316 µM): 0.197 µM | IC50 (second compound 1 µM): 0.164 µM | IC50 (second compound 3.16 µM): 0.174 µM | IC50 (second compound 10 µM): 0.166 µM | viability, T/C [1]: 99.9% | viability, T/C [2]: 63.3% | viability, T/C [3]: 35.3% | viability, T/C [4]: 10.8% | viability, T/C [5]: 10.2% | viability, T/C [6]: 9.85% | viability, T/C [7]: 96.1% | viability, T/C [8]: 58.2% | viability, T/C [9]: 28.4% | viability, T/C [10]: 13.8% | viability, T/C [11]: 8.45% | viability, T/C [12]: 10.4% | viability, T/C [13]: 97.5% | viability, T/C [14]: 75.9% | viability, T/C [15]: 32.9% | viability, T/C [16]: 8.6% | viability, T/C [17]: 9.15% | viability, T/C [18]: 10.9% | viability, T/C [19]: 105% | viability, T/C [20]: 64.6% | viability, T/C [21]: 31.4% | viability, T/C [22]: 11.2% | viability, T/C [23]: 8.14% | viability, T/C [24]: 9.87% | viability, T/C [25]: 87.2% | viability, T/C [26]: 71.5% | viability, T/C [27]: 26.9% | viability, T/C [28]: 10.6% | viability, T/C [29]: 8.05% | viability, T/C [30]: 9.86% | viability, T/C [31]: 92.5% | viability, T/C [32]: 66.5% | viability, T/C [33]: 28.7% | viability, T/C [34]: 14.1% | viability, T/C [35]: 9.35% | viability, T/C [36]: 8.57%
